Assay results from ChEMBL document CHEMBL1152855, “Regioselective synthesis of dispiro[1H-indene-2,3'-pyrrolidine-2',3''-[3H]indole]-1,2''(1''H)-diones of potential anti-tumor properties” (2009).

Legend:
[1] = system: U-251; test: Growth inhibition of human U251 cells at 10 uM after 48 hrs by sulforhodamine B assay; type: functional; settings: U-251, 48 h, values are per cent of control
[2] = system: K562; test: Growth inhibition of human K562 cells at 10 uM after 48 hrs by sulforhodamine B assay; type: functional; settings: K562, 48 h, values are per cent of control
[3] = system: SK-OV-3; test: Growth inhibition of human SKOV3 cells at 10 uM after 48 hrs by sulforhodamine B assay; type: functional; settings: SK-OV-3, 48 h, values are per cent of control
[4] = system: TK-10; test: Growth inhibition of human TK10 cells at 10 uM after 48 hrs by sulforhodamine B assay; values are per cent of control; settings: TK-10, 48 h
[5] = system: OVCAR-8; test: Growth inhibition of human OVCAR8 cells at 10 uM after 48 hrs by sulforhodamine B assay; type: functional; settings: OVCAR-8, 48 h, read-out: GI
[6] = system: OVCAR-4; test: Growth inhibition of human OVCAR4 cells at 10 uM after 48 hrs by sulforhodamine B assay; type: functional; settings: OVCAR-4, 48 h, values are per cent of control
[7] = system: Rattus norvegicus; test: Antiinflammatory activity against carrageenan-induced paw edema in Wister albino rat assessed as inhibition of edema at 50 mg/kg, ip administered 1 hr prior to carrageenan challenge measured after 3 hrs relative to control; type: functional; settings: route intraperitoneal
[8] = system: LOX IMVI; test: Growth inhibition of human LOXIMVI cells at 10 uM after 48 hrs by sulforhodamine B assay; type: functional; settings: values are per cent of control
[9] = system: SNB-19; test: Growth inhibition of human SNB19 cells at 10 uM after 48 hrs by sulforhodamine B assay; type: functional; settings: SNB-19, 48 h, values are per cent of control
[10] = system: HOP-92; test: Growth inhibition of human HOP92 cells at 10 uM after 48 hrs by sulforhodamine B assay; type: functional; settings: HOP-92, 48 h, read-out: GI
[11] = system: UACC-257; test: Growth inhibition of human UACC257 cells at 10 uM after 48 hrs by sulforhodamine B assay; type: functional; settings: UACC-257, 48 h, values are per cent of control
[12] = system: T47D; test: Growth inhibition of human T47D cells at 10 uM after 48 hrs by sulforhodamine B assay; type: functional; settings: values are per cent of control
[13] = system: EKVX; test: Growth inhibition of human EKVX cells at 10 uM after 48 hrs by sulforhodamine B assay; type: functional; settings: values are per cent of control
[14] = system: NCI/ADR-RES; test: Growth inhibition of human NCI/ADR-RES cells at 10 uM after 48 hrs by sulforhodamine B assay; type: functional; settings: values are per cent of control
[15] = system: SF-268; test: Growth inhibition of human SF268 cells at 10 uM after 48 hrs by sulforhodamine B assay; type: functional; settings: SF-268, 48 h, values are per cent of control
[16] = system: 786-0; test: Growth inhibition of human 786-0 cells at 10 uM after 48 hrs by sulforhodamine B assay; type: functional; settings: 786-0, 48 h, values are per cent of control
[17] = system: HT-29; test: Growth inhibition of human HT-29 cells at 10 uM after 48 hrs by sulforhodamine B assay; type: functional; settings: HT-29, 48 h, values are per cent of control
[18] = system: Rattus norvegicus; test: Antiinflammatory activity against carrageenan-induced paw edema in Wister albino rat assessed as inhibition of edema at 50 mg/kg, ip administered 1 hr prior to carrageenan challenge measured after 4 hrs relative to indomethacin; type: functional; settings: route intraperitoneal
[19] = system: OVCAR-3; test: Growth inhibition of human OVCAR-3 cells at 10 uM after 48 hrs by sulforhodamine B assay; type: functional; settings: OVCAR-3, 48 h, values are per cent of control
[20] = system: NCI-H23; test: Growth inhibition of human NCI-H23 cells at 10 uM after 48 hrs by sulforhodamine B assay; type: functional; settings: NCI-H23, 48 h, values are per cent of control
[21] = system: NCI-H322M; test: Growth inhibition of human NCI-H322M cells at 10 uM after 48 hrs by sulforhodamine B assay; type: functional; settings: values are per cent of control
[22] = system: Rattus norvegicus; test: Antiinflammatory activity against carrageenan-induced paw edema in Wister albino rat assessed as inhibition of edema at 50 mg/kg, ip administered 1 hr prior to carrageenan challenge measured after 2 hrs relative to control; type: functional; settings: route intraperitoneal
[23] = system: M14; test: Growth inhibition of human M14 cells at 10 uM after 48 hrs by sulforhodamine B assay; type: functional; settings: M14, 48 h, values are per cent of control
[24] = system: PC-3; test: Growth inhibition of human PC3 cells at 10 uM after 48 hrs by sulforhodamine B assay; type: functional; settings: PC-3, 48 h, values are per cent of control
[25] = system: SR; test: Growth inhibition of human SR cells at 10 uM after 48 hrs by sulforhodamine B assay; type: functional; settings: values are per cent of control
[26] = system: RPMI-8226; test: Growth inhibition of human RPMI8226 cells at 10 uM after 48 hrs by sulforhodamine B assay; type: functional; settings: RPMI-8226, 48 h, read-out: GI
[27] = system: HOP-62; test: Growth inhibition of human HOP62 cells at 10 uM after 48 hrs by sulforhodamine B assay; type: functional; settings: HOP-62, 48 h, values are per cent of control
[28] = system: SN12C; test: Growth inhibition of human SN12C cells at 10 uM after 48 hrs by sulforhodamine B assay; type: functional; settings: values are per cent of control
[29] = system: HCC 2998; test: Growth inhibition of human HCC2998 cells at 10 uM after 48 hrs by sulforhodamine B assay; type: functional; settings: HCC 2998, 48 h, values are per cent of control
[30] = system: SNB-75; test: Growth inhibition of human SNB75 cells at 10 uM after 48 hrs by sulforhodamine B assay; type: functional; settings: SNB-75, 48 h, values are per cent of control
[31] = system: NCI-H522; test: Growth inhibition of human NCI-H522 cells at 10 uM after 48 hrs by sulforhodamine B assay; type: functional; settings: NCI-H522, 48 h, values are per cent of control
[32] = system: Rattus norvegicus; test: Antiinflammatory activity against carrageenan-induced paw edema in Wister albino rat assessed as inhibition of edema at 50 mg/kg, ip administered 1 hr prior to carrageenan challenge measured after 4 hrs relative to control; type: functional; settings: route intraperitoneal
[33] = system: HCT-15; test: Growth inhibition of human HCT15 cells at 10 uM after 48 hrs by sulforhodamine B assay; type: functional; settings: HCT-15, 48 h, values are per cent of control
[34] = system: NCI-H226; test: Growth inhibition of human NCI-H226 cells at 10 uM after 48 hrs by sulforhodamine B assay; type: functional; settings: NCI-H226, 48 h, values are per cent of control
[35] = system: UACC-62; test: Growth inhibition of human UACC62 cells at 10 uM after 48 hrs by sulforhodamine B assay; type: functional; settings: UACC-62, 48 h, values are per cent of control
[36] = system: SF-539; test: Growth inhibition of human SF539 cells at 10 uM after 48 hrs by sulforhodamine B assay; type: functional; settings: SF-539, 48 h, values are per cent of control
[37] = system: MOLT-4; test: Growth inhibition of human MOLT4 cells at 10 uM after 48 hrs by sulforhodamine B assay; type: functional; settings: MOLT-4, 48 h, values are per cent of control
[38] = system: SK-MEL-5; test: Growth inhibition of human SK-MEL-5 cells at 10 uM after 48 hrs by sulforhodamine B assay; type: functional; settings: SK-MEL-5, 48 h, values are per cent of control
[39] = system: ACHN; test: Growth inhibition of human ACHN cells at 10 uM after 48 hrs by sulforhodamine B assay; type: functional; settings: values are per cent of control

| Structure (SMILES) | growth, % of control at 10 µM [1] | growth, % of control at 10 µM [2] | growth, % of control at 10 µM [3] | growth, % of control at 10 µM [4] | inhibition of growth at 10 µM [5] | growth, % of control at 10 µM [6] | inhibition in vivo at 50 mg/kg [7] | growth, % of control at 10 µM [8] | growth, % of control at 10 µM [9] | inhibition of growth at 10 µM [10] | growth, % of control at 10 µM [11] | growth, % of control at 10 µM [12] | growth, % of control at 10 µM [13] | growth, % of control at 10 µM [14] | growth, % of control at 10 µM [15] | growth, % of control at 10 µM [16] | growth, % of control at 10 µM [17] | activity relative to indomethacin [18] | growth, % of control at 10 µM [19] | growth, % of control at 10 µM [20] | further results |
| --- | --- | --- | --- | --- | --- | --- | --- | --- | --- | --- | --- | --- | --- | --- | --- | --- | --- | --- | --- | --- | --- |
| [3H]N1C(=O)[C@@]2(c3ccccc31)N(C)C[C@@H](c1cccs1)[C@@]21Cc2ccccc2C1=O | 100% | 93.7% | 96.2% | 144% | 60.2% | 93% | 32.6% | 80% | 99.8% | 72.9% | 65% | 96% | 97.5% | 97.4% | 93.6% | 111% | 99.6% | 41% | 95.6% | 92% | growth, % of control at 10 µM [21]: 98.9%; inhibition in vivo at 50 mg/kg [22]: 39.1%; growth, % of control at 10 µM [23]: 103%; growth, % of control at 10 µM [24]: 73%; growth, % of control at 10 µM [25]: 60.3%; inhibition of growth at 10 µM [26]: 89.1%; growth, % of control at 10 µM [27]: 110%; growth, % of control at 10 µM [28]: 99.6%; growth, % of control at 10 µM [29]: 103%; growth, % of control at 10 µM [30]: 81%; growth, % of control at 10 µM [31]: 92.3%; inhibition in vivo at 50 mg/kg [32]: 20%; growth, % of control at 10 µM [33]: 103%; growth, % of control at 10 µM [34]: 96.2%; growth, % of control at 10 µM [35]: 82%; growth, % of control at 10 µM [36]: 109%; growth, % of control at 10 µM [37]: 67.7%; growth, % of control at 10 µM [38]: 114%; growth, % of control at 10 µM [39]: 97.9% |
| [3H]C([3H])([3H])N1C(=O)[C@@]2(c3ccccc31)N(C)C[C@@H](c1ccc(Cl)cc1)[C@@]21Cc2ccccc2C1=O | 93.1% | 39.5% | 86.6% | 140% | 60.9% | 72.5% | 9.4% | 72.2% | 89.9% | 25.1% | 42.6% | 75.8% | 72.6% | 79.4% | 81.1% | 86.2% | 46.1% | 18% | 69.3% | 58% | growth, % of control at 10 µM [21]: 106%; inhibition in vivo at 50 mg/kg [22]: 36.3%; growth, % of control at 10 µM [23]: 76.6%; growth, % of control at 10 µM [24]: 38.3%; growth, % of control at 10 µM [25]: 51.4%; inhibition of growth at 10 µM [26]: 13.4%; growth, % of control at 10 µM [27]: 88.1%; growth, % of control at 10 µM [28]: 86.5%; growth, % of control at 10 µM [29]: 88%; growth, % of control at 10 µM [30]: 75.3%; growth, % of control at 10 µM [31]: 77.3%; inhibition in vivo at 50 mg/kg [32]: 8.5%; growth, % of control at 10 µM [33]: 68.3%; growth, % of control at 10 µM [34]: 63.2%; growth, % of control at 10 µM [35]: 48.4%; growth, % of control at 10 µM [36]: 90.5%; growth, % of control at 10 µM [37]: 87.5%; growth, % of control at 10 µM [38]: 87%; growth, % of control at 10 µM [39]: 82.8% |
